{"source": "PubChem BioAssay AID179", "about": "(DTP/NCI, 2004)", "system": "CEM cells HIV-1 protection, formazan growth assay", "experiment": "NCI AIDS Antiviral Assay", "conditions": "for IC50: measured here: growth of uninfected CEM cells", "summary_of_the_method": "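CEM (human) cells, HIV-1 infected vs uninfected, 5-point dosing, formazan growth read-out. Retest threshold 50% protection.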", "note": "Active and inactive are the calls of the source.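 The calls were made as follows: active = compounds giving half or more protection of infected cells from virus-caused growth loss, again on retest; inactive = the rest.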"}
{"smiles": "CN1C(=N\\S(=O)(=O)c2ccc(Cl)cc2)/C(=N/N=P(c2ccccc2)(c2ccccc2)c2ccccc2)c2ccccc21", "values": [{"measurement": "EC50", "result": "> 2.34", "unit": "µM"}, {"measurement": "IC50", "result": "> 2.34", "unit": "µM"}]}
{"smiles": "CC1CCN(CCC(=O)CC(c2ccccc2)c2c(O)c3ccccc3oc2=O)CC1", "note": "(stereo not given)", "values": [{"measurement": "EC50", "result": "> 97.7", "unit": "µM"}, {"measurement": "IC50", "result": 57.5, "unit": "µM"}]}
{"smiles": "CC1=[N+]([O-])C2(CCCC2)N(O)C1(C)C", "values": [{"measurement": "EC50", "result": "> 200", "unit": "µM"}, {"measurement": "IC50", "result": "> 200", "unit": "µM"}]}
{"smiles": "O=C(Nc1ccc(Cl)cc1)/C(Cc1cccc[n+]1[O-])=N\\Nc1ccc([N+](=O)[O-])cc1[N+](=O)[O-]", "values": [{"measurement": "EC50", "result": "> 107", "unit": "µM"}, {"measurement": "IC50", "result": "> 107", "unit": "µM"}]}
{"smiles": "COc1ccc(N2C(=O)C3c4[nH]c5ccccc5c4C4CCC(C(C)C)CC4C3C2=O)cc1", "note": "(stereo not given)", "values": [{"measurement": "EC50", "result": "> 100", "unit": "µM"}, {"measurement": "IC50", "result": 93.3, "unit": "µM"}]}
{"smiles": "O=C(/C=C(\\O)C(=O)O)/C=C(\\O)c1ccc(Cl)cc1", "values": [{"measurement": "EC50", "result": "> 69.2", "unit": "µM"}, {"measurement": "IC50", "result": "> 69.2", "unit": "µM"}]}
{"smiles": "COc1ccc(NC(=O)C(=O)C(C(=O)c2ccccc2)C2OC(=O)c3ccccc32)c([N+](=O)[O-])c1", "note": "(stereo not given)", "values": [{"measurement": "EC50", "result": "> 135", "unit": "µM"}, {"measurement": "IC50", "result": "> 135", "unit": "µM"}]}
{"smiles": "O=C(Cc1csc2[n+]1C(=O)/C(=C/c1cccc([N+](=O)[O-])c1)S2)Nc1ccccc1", "values": [{"measurement": "outcome", "result": "inactive"}]}
{"smiles": "CCOP(=O)(OCC)c1cc(-c2ccccc2)ccc1N", "values": [{"measurement": "EC50", "result": "> 200", "unit": "µM"}, {"measurement": "IC50", "result": "> 200", "unit": "µM"}]}
{"smiles": "O=C(O)CC(O)(c1ccccc1C(=O)O)c1cccc2ccccc12", "note": "(stereo not given)", "values": [{"measurement": "outcome", "result": "inactive"}]}
{"smiles": "Cc1cc(C(=O)Nc2ccc(NC3=NCCN3)cc2)c(C)cc1C(=O)Nc1ccc(NC2=NCCN2)cc1", "values": [{"measurement": "EC50", "result": "> 200", "unit": "µM"}, {"measurement": "IC50", "result": 20.4, "unit": "µM"}]}
{"smiles": "O=C1OC(c2ccccc2)(c2ccccc2)c2sccc21", "values": [{"measurement": "EC50", "result": "> 24.5", "unit": "µM"}, {"measurement": "IC50", "result": "> 24.5", "unit": "µM"}]}
{"smiles": "O=C(/C=C\\c1ccc(Cl)cc1Cl)c1cccs1", "values": [{"measurement": "EC50", "result": "> 200", "unit": "µM"}, {"measurement": "IC50", "result": 32.4, "unit": "µM"}]}
{"smiles": "O=C(Cc1nc2ccccc2s1)C(=O)Nc1cccc(C(F)(F)F)c1", "values": [{"measurement": "outcome", "result": "inactive"}]}
{"smiles": "Cc1n[nH]c(=O)n1/N=C/c1ccc([N+](=O)[O-])cc1", "values": [{"measurement": "EC50", "result": "> 200", "unit": "µM"}, {"measurement": "IC50", "result": "> 100", "unit": "µM"}]}
{"smiles": "O[C@@H]1CCNC[C@@H]1CNC12CC3CC(CC(C3)C1)C2", "values": [{"measurement": "EC50", "result": "> 955", "unit": "µM"}, {"measurement": "IC50", "result": 275, "unit": "µM"}]}
{"smiles": "COC(=O)c1cc(=O)c2c(ccc3oc(=O)ccc32)[nH]1", "values": [{"measurement": "EC50", "result": "> 200", "unit": "µM"}, {"measurement": "IC50", "result": 170, "unit": "µM"}]}
{"smiles": "CNc1ccc(Cl)cc1S(=O)(=O)c1ccccc1[N+](=O)[O-]", "values": [{"measurement": "EC50", "result": 0.562, "unit": "µM"}, {"measurement": "IC50", "result": 741, "unit": "µM"}]}
{"smiles": "Nc1ccc(/C=C/c2ccc(NC(=O)c3cc(S(=O)(=O)O)c4cccnc4c3O)cc2S(=O)(=O)O)c(S(=O)(=O)O)c1", "values": [{"measurement": "EC50", "result": 58.9, "unit": "µM"}, {"measurement": "IC50", "result": "> 200", "unit": "µM"}]}
{"smiles": "Cc1ccc(C)n1N1CCOCC1", "values": [{"measurement": "EC50", "result": "> 200", "unit": "µM"}, {"measurement": "IC50", "result": 115, "unit": "µM"}]}
{"smiles": "O=C(O)c1ccccc1C(=O)c1ccccc1", "values": [{"measurement": "EC50", "result": "> 200", "unit": "µM"}, {"measurement": "IC50", "result": "> 200", "unit": "µM"}]}
{"smiles": "CCOP(=O)(OCC)/C(C#N)=C/c1nccn1C", "values": [{"measurement": "outcome", "result": "inactive"}]}
{"smiles": "COc1ccc(I)c(CCC(C(=O)O)C2=CCC3(CC2)OCCO3)c1", "note": "(stereo not given)", "values": [{"measurement": "EC50", "result": "> 145", "unit": "µM"}, {"measurement": "IC50", "result": "> 145", "unit": "µM"}]}
{"smiles": "C[C@]12CC(C#N)C(=O)C(O)=C1CC[C@@H]1C2CC[C@@]2(C)C1CC[C@@H]2O", "note": "(stereo not given in full)", "values": [{"measurement": "outcome", "result": "inactive"}]}
{"smiles": "CC1(C)CCCCCC(C)(CCCO)C1=O", "note": "(stereo not given)", "values": [{"measurement": "EC50", "result": "> 200", "unit": "µM"}, {"measurement": "IC50", "result": "> 200", "unit": "µM"}]}
{"smiles": "C=CC(C1=CC(=O)C(OC)=CC1=O)c1ccc(OC)cc1", "note": "(stereo not given)", "values": [{"measurement": "outcome", "result": "inactive"}]}
{"smiles": "COc1ccc2c(O)c(Oc3ccc(Cl)cc3)c(=O)oc2c1", "values": [{"measurement": "outcome", "result": "inactive"}]}
{"smiles": "COc1ccc(C2(O)C(S(=O)(=O)c3ccc(C)cc3)=Cc3ccc(OC)cc32)cc1", "note": "(stereo not given)", "values": [{"measurement": "EC50", "result": "> 200", "unit": "µM"}, {"measurement": "IC50", "result": "> 200", "unit": "µM"}]}
{"smiles": "Cc1ccc(S(=O)C[C@@]2(C(F)F)NC(=O)NC2=O)cc1", "note": "(stereo not given in full)", "values": [{"measurement": "EC50", "result": "> 200", "unit": "µM"}, {"measurement": "IC50", "result": 178, "unit": "µM"}]}
{"smiles": "Cc1cc(=O)[nH]c(NNC(C#N)c2c(O)ccc3ccccc23)n1", "note": "(stereo not given)", "values": [{"measurement": "EC50", "result": "> 16.2", "unit": "µM"}, {"measurement": "IC50", "result": 1.07, "unit": "µM"}]}
{"smiles": "CCOC(=O)C(=[N+]=[N-])C(=O)C1(C(=O)OCC)CCN(C(=O)c2ccccc2)C1=O", "note": "(stereo not given)", "values": [{"measurement": "EC50", "result": "> 200", "unit": "µM"}, {"measurement": "IC50", "result": "> 200", "unit": "µM"}]}
{"smiles": "N/N=C(N)/C(N)=N/N", "values": [{"measurement": "outcome", "result": "inactive"}]}
{"smiles": "O=c1c2cc([N+](=O)[O-])ccc2oc2ccc([N+](=O)[O-])cc12", "values": [{"measurement": "EC50", "result": "> 13.2", "unit": "µM"}, {"measurement": "IC50", "result": "> 13.2", "unit": "µM"}]}
{"smiles": "CN(C)c1ccc(/C=c2\\sc3nc4ccccc4n3c2=O)cc1", "values": [{"measurement": "EC50", "result": "> 0.851", "unit": "µM"}, {"measurement": "IC50", "result": "> 0.851", "unit": "µM"}]}
{"smiles": "O=C(O)/C=C/CCC1SCC2NC(=O)NC21", "note": "(stereo not given)", "values": [{"measurement": "EC50", "result": "> 107", "unit": "µM"}, {"measurement": "IC50", "result": "> 107", "unit": "µM"}]}
{"smiles": "COc1cc(/C=C2\\NC(=O)N(/C=C3\\C(=O)Oc4ccccc4C3=O)C2=O)ccc1O", "values": [{"measurement": "EC50", "result": "> 200", "unit": "µM"}, {"measurement": "IC50", "result": "> 200", "unit": "µM"}]}
{"smiles": "COc1ccc(SSc2ccc(OC)cc2C(=O)O)c(C(=O)O)c1", "values": [{"measurement": "EC50", "result": "> 200", "unit": "µM"}, {"measurement": "IC50", "result": "> 200", "unit": "µM"}]}
{"smiles": "C=C(C(=O)O)C1CC[C@@]2(C)CC(O)CC(=C)C2C1", "note": "(stereo not given in full)", "values": [{"measurement": "EC50", "result": "> 200", "unit": "µM"}, {"measurement": "IC50", "result": "> 200", "unit": "µM"}]}
{"smiles": "N#Cc1c(N)[nH]c(S)c1C#N", "values": [{"measurement": "EC50", "result": "> 123", "unit": "µM"}, {"measurement": "IC50", "result": 72.4, "unit": "µM"}]}
{"smiles": "N#CN=C1C=CC(=C(C#N)C#N)C=C1", "values": [{"measurement": "outcome", "result": "inactive"}]}
{"smiles": "CCOC(=O)Cc1nc(Nc2ccc(F)c(Cl)c2)c2c3c(sc2n1)CCCC3", "values": [{"measurement": "EC50", "result": "> 12.3", "unit": "µM"}, {"measurement": "IC50", "result": "> 12.3", "unit": "µM"}]}
{"smiles": "CCOC(=O)c1cc(Cl)cc2c(=O)c3c(O)c4[nH]c5c(C(=O)OCC)cc(Cl)cc5c(=O)c4c(O)c3[nH]c12", "values": [{"measurement": "EC50", "result": "> 100", "unit": "µM"}, {"measurement": "IC50", "result": 4.9, "unit": "µM"}]}
{"smiles": "O=C1CC(CC(=O)c2ccc(Br)cc2)C(=O)/C1=C(/O)c1ccc(Br)cc1", "note": "(stereo not given)", "values": [{"measurement": "EC50", "result": "> 200", "unit": "µM"}, {"measurement": "IC50", "result": 41.7, "unit": "µM"}]}
{"smiles": "COc1cc2ccnc3c(=C(SC)SC)c(=O)c(c1OC)c23", "values": [{"measurement": "outcome", "result": "inactive"}]}
{"smiles": "NC1N=C(c2ccc(Cl)cc2)C2=C(N1)c1ccccc1CC2", "note": "(stereo not given)", "values": [{"measurement": "EC50", "result": "> 200", "unit": "µM"}, {"measurement": "IC50", "result": 6.76, "unit": "µM"}]}
